Drawing on PubChem BioAssay AID2060340 (Molecular Pharmacology Branch, DTP, NCI, 2025), this text covers viability, T/C and IC50 for 15 molecules.

Each structure is given as a SMILES string. Several values for one entry are separate records, joined by “and”; a condition that tells them apart may be missing. Equal values may be shown once. Some results are limits rather than exact numbers.

For this assay, the system named is 349418-098-R-PDC spheroids, viability, % test/control. The experiment in a line: Anticancer human tumor 349418-098-R-PDC patient-derived lung adenocarcinoma cell line growth inhibition [IpAb]. The settings on record: spheroids with HUVEC and MSC; for viability, T/C: stronger effect = lower value. The source says:
Combinatorial screen of targeted agents with ipatasertib and abemaciclib in multi-cell type tumor spheroids
A high-throughput screen of multi-cell type tumor spheroids was designed to identify active combinations of targeted small molecules and ipatasertib or abemaciclib. Complex spheroids include a stromal component modeled by human endothelial cells (HUVEC) and fibroblasts modeled by human mesenchymal stem cells (MSCs). The concentration ranges selected for each drug and investigational agent were based upon clinically achievable concentrations if the clinical Cmax of the agent was known.
Compounds. The drugs and investigational agents: ipatasertib (NSC767898), abemaciclib(NSC768073), selumetinib (NSC741078), trametinib (758246), adavosertib (NSC754352), everolimus (NSC733504), sapanisertib (NSC764658), vemurafenib (NSC761431), venetoclax (NSC766270), copanlisib (NSC809693), apelisib (NSC765974), palbociblib (NSC758247), vemurafenib (NSC761431), dabrafenib (NSC764134), ravoxertinib (NSC781343), BMS-387032 (NSC767048), sotorasib (NSC818433), talazoparib (NSC767125) and afursertib (NSC778305), were obtained from the National Cancer Institute (NCI) Developmental Therapeutics Program Chemical Repository. The FDA-approved anticancer drug set is available from the NCI Developmental Therapeutics Program. […] The stock solutions were prepared in dimethyl sulfoxide (DMSO, Sigma-Aldrich, St. Louis, MO, cat. D2650) at 800-fold the tested concentration and stored at -70 degrees C prior to their use. All drugs and investigational agents were tested over a range starting from a high concentration at or near the clinical Cmax and decreasing in half-log increments. If the clinical Cmax for an agent had not been determined, the highest concentration tested was 10 microM.
NCI60 Cell Culture. NCI60 cell lines were obtained from the NCI Developmental Therapeutics Program Tumor Repository. For each lot of cells, the Repository performed Applied Biosystems AmpFLSTR Identifiler testing with PCR amplification to confirm consistency with the published Identifier STR profile for each cell line. Cells were kept in continuous culture for no more than 20 passages. The optimal seeding densities for each of the cell lines at each time point assessed were determined prior to performing the concentration response studies. Briefly, the NCI60 human tumor lines were grown as monolayers in RPMI 1640 medium supplemented with 10% FBS and 2 mmol/L L-glutamine.
An additional 9 lines were from the NCI60 cell line panel including MDA-MB-231 breast carcinoma, MDA-MB-468 breast carcinoma, MCF7 breast carcinoma, Hs578T breast carcinoma, MALME-3M melanoma, SK-MEL-2 melanoma, SK-OV-3 ovarian carcinoma, DU-145 prostate carcinoma, PC-3 prostate carcinoma, all cell lines along with major genetic alterations are listed on Table 2. Pooled donor human umbilical vein endothelial cells (HUVEC, Lonza, cat. CC-2519) and human mesenchymal stem cells (hMSC, Lonza, cat. PT-2501) were purchased from Lonza (Walkersville, MD).
PDMR cell lines were grown in complete medium (DC medium): Dulbecco's modified Eagle's medium (DMEM)/F12 supplemented with 5% fetal bovine serum (FBS), 2 mM L-glutamine, 100 U/mL penicillin and 100 µg/ml streptomycin, 0.4 µg/ml hydrocortisone, 10 ng/ml epidermal growth factor (EGF) recombinant human protein, 24 µg/mL adenine, and 0.1 mg/mL primocin. During culture from frozen stock vials, PDMR cells were cultured in the same medium containing 10 µM Y-27632 (see Table 3). The PDCs were cultured in complete DMEM/F12 media without 10 microM Y-27632 dihydrochloride for at least two passages prior to the screen. The pooled donor HUVEC and hMSC were cultured in endothelial cell growth medium 2 (PromoCell, Heidelberg, Germany, cat. C-22011) and mesenchymal stem cell growth medium 2 (PromoCell, cat. C-28009), respectively. For all experiments, HUVEC and hMSC were used at passages </=5.
[…]

Where [1] appears, read: compound alone, run of 05/18/2021.
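Note: spheroids exposed to compounds for 7 days.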

The term viability, T/C denotes the ratio of treated to control. In general, IC50 refers to the concentration at which inhibition is half-maximal. Take `C=CC(=O)N1CCN(c2nc(=O)n(-c3c(C)ccnc3C(C)C)c3nc(-c4c(O)cccc4F)c(F)cc23)C(C)C1` (stereo not given): the viability, T/C (compound 0.0316 µM) is 109% and 107%; the viability, T/C (compound 0.1 µM) was 107% and 104%; the viability, T/C (compound 0.316 µM) was 105% and 94.1%; the viability, T/C (compound 1 µM) was 102% and 96.4%; the viability, T/C (compound 3.16 µM) is 72.9% and 76.2%; the viability, T/C (compound 10 µM) was 48.9% and 38%. Moreover, the IC50 (curve of compound) is 9.46 µM and 7.01 µM.
Regarding `C=CCn1c(=O)c2cnc(Nc3ccc(N4CCN(C)CC4)cc3)nc2n1-c1cccc(C(C)(C)O)n1`, the viability, T/C was 91.8% and 105% (compound 0.0316 µM); 84.5% and 88.7% (compound 0.1 µM); 18.8% and 26.7% (compound 0.316 µM); 5.04% and 4.87% (compound 1 µM); 4.87% and 4.84% (compound 3.16 µM); 6.19% and 4.54% (compound 10 µM). Also, under “curve of compound”, the IC50 is 0.183 µM and 0.205 µM.
On to `CC(=O)c1c(C)c2cnc(Nc3ccc(N4CCNCC4)cn3)nc2n(C2CCCC2)c1=O`, for which the viability, T/C is, setting by setting: (compound 0.000949 µM) 97.3% and 86.4%; (compound 0.003 µM) 82.9% and 78.7%; (compound 0.00949 µM) 61.7%; (compound 0.03 µM) 30.8% and 42.2%; (compound 0.0949 µM) 24.5% and 21.1%; (compound 0.3 µM) 16.8% and 16.9%. The IC50 (curve of compound) was 0.0144 µM and 0.0182 µM.
In the case of `CC(C)(C)c1cnc(CSc2cnc(NC(=O)C3CCNCC3)s2)o1`, the viability, T/C runs as follows: (compound 0.00949 µM) 105% and 108%; (compound 0.03 µM) 90.5% and 85.3%; (compound 0.0949 µM) 2.46% and 15.2%; (compound 0.3 µM) 2.23% and 2.41%; (compound 0.949 µM) 3.07% and 3.11%; (compound 3 µM) 2.08% and 2.15%. Moreover, the IC50 (curve of compound) was 0.0509 µM and 0.0536 µM.
On to `CC(C)NCC(C(=O)N1CCN(c2ncnc3c2C(C)CC3O)CC1)c1ccc(Cl)cc1` (stereo not given), for which the viability, T/C is, setting by setting: (compound 0.1 µM) 84.9% [middle of 13 runs]; (compound 1 µM) 24.5% [middle of 13 runs]; (compound 3.16 µM) 11.8% [middle of 13 runs]; (compound 10 µM) 7.07% [middle of 11 runs]. Besides, the IC50 under setting [1] was 350 nM [middle of 13 runs].
For the molecule `CC(C)n1nc(-c2ccc3oc(N)nc3c2)c2c(N)ncnc21`, the viability, T/C was 93.8% and 89.8% (compound 0.000316 µM); 72.9% and 60.3% (compound 0.001 µM); 24.7% and 26.2% (compound 0.00316 µM); 11% and 10.4% (compound 0.01 µM); 8.02% and 7.35% (compound 0.0316 µM); 7.57% and 6.78% (compound 0.1 µM). In addition, the IC50 (curve of compound) is 0.00173 µM and 0.00142 µM.
For the molecule `CC1(C)CCC(CN2CCN(c3ccc(C(=O)NS(=O)(=O)c4ccc(NCC5CCOCC5)c([N+](=O)[O-])c4)c(Oc4cnc5[nH]ccc5c4)c3)CC2)=C(c2ccc(Cl)cc2)C1`, the viability, T/C reads like this: (compound 0.0316 µM) 110% and 115%; (compound 0.1 µM) 109% and 94.8%; (compound 0.316 µM) 107% and 101%; (compound 1 µM) 103% and 106%; (compound 3.16 µM) 82.2% and 92.3%; (compound 10 µM) 6.95% and 3.46%. The IC50 (curve of compound) is 5.17 µM and 5.47 µM.
As for `CCCS(=O)(=O)Nc1ccc(F)c(C(=O)c2c[nH]c3ncc(-c4ccc(Cl)cc4)cc23)c1F`, the viability, T/C is, setting by setting: (compound 0.0316 µM) 69.3% and 61.6%; (compound 0.1 µM) 52% and 49.9%; (compound 0.316 µM) 51.7% and 55.5%; (compound 1 µM) 49.4% and 45.2%; (compound 3.16 µM) 50.4% and 46.2%; (compound 10 µM) 22.7% and 19.6%. Where the note is “curve of compound”, the IC50 was 1.85 µM and 1.09 µM.
`CCN1CCN(Cc2ccc(Nc3ncc(F)c(-c4cc(F)c5nc(C)n(C(C)C)c5c4)n3)nc2)CC1`: the viability, T/C (compound 0.01 µM) was 74.5% [middle of 13 runs]; the viability, T/C (compound 0.0316 µM) is 44.2% [middle of 13 runs]; the viability, T/C (compound 0.1 µM) is 26.4% [middle of 13 runs]; the viability, T/C (compound 0.316 µM) is 19.7% [middle of 12 runs]; the viability, T/C (compound 1 µM) was 15.5% [middle of 13 runs]. Besides, the IC50 under setting [1] was 28.5 nM [middle of 12 runs].
Regarding `COc1c(OCCCN2CCOCC2)ccc2c3n(c(=NC(=O)c4cnc(N)nc4)nc12)CCN3`, the viability, T/C is 98.7% and 85.4% (compound 0.00316 µM); 45.2% and 56.9% (compound 0.01 µM); 11.5% and 15.2% (compound 0.0316 µM); 7.98% and 6.59% (compound 0.1 µM); 7.2% and 6.31% (compound 0.316 µM); 6.67% and 5.78% (compound 1 µM). In addition, the IC50 (curve of compound) was 0.00902 µM and 0.0121 µM.
For `Cc1nc(NC(=O)N2CCCC2C(N)=O)sc1-c1ccnc(C(C)(C)C(F)(F)F)c1` (stereo not given), the viability, T/C (compound 0.0316 µM) was 87.3% and 95.4%; the viability, T/C (compound 0.1 µM) was 81.1% and 75.3%; the viability, T/C (compound 0.316 µM) is 46.4% and 43.7%; the viability, T/C (compound 1 µM) was 18.9% and 22.8%; the viability, T/C (compound 3.16 µM) was 14% and 15.1%; the viability, T/C (compound 10 µM) is 11.2% and 14.1%. Under “curve of compound”, the IC50 is 0.284 µM and 0.251 µM.
In the case of `Cn1cnc2c(F)c(Nc3ccc(Br)cc3Cl)c(C(=O)NOCCO)cc21`, the viability, T/C is, setting by setting: (compound 0.00949 µM) 54.9% and 51.1%; (compound 0.03 µM) 47.6% and 37.5%; (compound 0.0949 µM) 49.2% and 43%; (compound 0.3 µM) 58.2% and 42.2%; (compound 0.949 µM) 37.5% and 27.2%; (compound 3 µM) 12.6% and 11.1%.
Consider `Cn1ncc(Cl)c1-c1cc(C(=O)NC(CN)Cc2cccc(F)c2)sc1Cl` (stereo not given), for which the viability, T/C runs as follows: (compound 0.0316 µM) 90% and 71.9%; (compound 0.1 µM) 64.6% and 67%; (compound 0.316 µM) 43% and 30.5%; (compound 1 µM) 10.9% and 16.7%; (compound 3.16 µM) 7.08% and 7.12%; (compound 10 µM) 0.13% and 0.32%. For the same molecule, the IC50 (curve of compound) was 0.2 µM and 0.169 µM.
`Cn1nccc1Nc1nccc(-c2ccn(C(CO)c3ccc(Cl)c(F)c3)c(=O)c2)n1` (stereo not given): the viability, T/C reads like this: (compound 0.0316 µM) 50.1% and 54.6%; (compound 0.1 µM) 42.6% and 45.7%; (compound 0.316 µM) 57.2% and 49.9%; (compound 1 µM) 44.4% and 49.7%; (compound 3.16 µM) 29% and 30.1%; (compound 10 µM) 19.7% and 21.3%.
As for `Cn1ncnc1[C@H]1c2n[nH]c(=O)c3cc(F)cc(c23)N[C@@H]1c1ccc(F)cc1`, the viability, T/C is, setting by setting: (compound 0.000316 µM) 96.5% and 98.7%; (compound 0.001 µM) 100% and 99.5%; (compound 0.00316 µM) 94.5% and 104%; (compound 0.01 µM) 94.8% and 100%; (compound 0.0316 µM) 83.4% and 81.5%; (compound 0.1 µM) 75.5% and 78.4%. Also, the IC50 (curve of compound) was greater than 0.1 µM.
